Experimental data: US10660333B2, “Substituted 2-heterocyclylimidazolylcarboxamides as pesticides” (BAYER CROPSCIENCE AKTIENGESELLSCHAFT, priority 2016, dated 2020)
Read-outs that look alike come from different tables or passages of the source.

Columns and labels:
Myzus persicae [1] = assay: Myzus persicae - spray test (MYZUPE S), bell pepper plants; type: in vivo; settings: 6 dat; for Emax at 0.16 ppm / Emax at 0.8 ppm: Myzus persicae, 144 h, read-out: % efficacy
Procedure: Myzus persicae—Spray Test (MYZUPE S)
(§1) To produce a suitable active ingredient formulation, 1 part by weight of active ingredient is dissolved with the specified parts by weight of solvent and made up to the desired concentration with water containing an emulsifier concentration of 1000 ppm. To produce further test concentrations, the formulation is diluted with emulsifier-containing water. If the addition of ammonium salts or/and penetrants is required, these are each added in a concentration of 1000 ppm to the formulation solution.
Bell pepper plants (Capsicum annuum) severely infested with the green peach aphid (Myzus persicae) are treated by spraying with the active ingredient formulation in the desired concentration.
After the desired time, the kill in % is determined. 100% means that all the animals have been killed; 0% means that no animals have been killed.

Myzus persicae [2] = assay: Myzus persicae - drench test (MYZUPE D), savoy cabbage; type: in vivo; settings: 10 dat; for Emax at 0.16 ppm / Emax at 0.8 ppm: Myzus persicae, soil, 240 h, read-out: % efficacy
Procedure: Myzus persicae—Drench Test (MYZUPE D)
To produce a suitable active ingredient formulation, 1 part by weight of active ingredient is mixed with the specified amounts of solvent and emulsifier, and the concentrate is diluted with water to the desired concentration, it being necessary to include the volume of soil which is drenched in the calculation. It should be ensured that a concentration of 40 ppm of emulsifier in the soil is not exceeded. To produce further test concentrations, water is used for dilution.
Savoy cabbage (Brassica oleracea) in pots with soil and infested by all stages of the green peach aphid (Myzus persicae) is watered with an active ingredient formulation of the desired concentration.
(§2) After the desired period of time, the efficacy in % is determined. 100% means that all the aphids have been killed; 0% means that no aphids have been killed.

Aphis gossypii = Aphis gossypii - spray test (APHIGO S), cotton plants; type: in vivo; settings: 144 h, 6 dat, read-out: % efficacy
Procedure: Aphis gossypii—Spray Test (APHIGO S)
as §1
Cotton plants (Gossypium hirsutum) heavily infested by the cotton aphid (Aphis gossypii) are sprayed with an active ingredient formulation of the desired concentration.
After the desired time, the kill in % is determined. 100% means that all the aphids have been killed; 0% means that no aphids have been killed.

Myzus persicae [3] = assay: Myzus persicae - spray test (MYZUPE), comparison with prior art; type: in vivo; settings: for Emax at 4 g/ha / Emax at 20 g/ha / Emax at 100 g/ha / Emax at 500 g/ha: Myzus persicae, read-out: % efficacy
Procedure: Myzus persicae—Spray Test (MYZUPE)
(§3) To produce a suitable active ingredient formulation, 1 part by weight of active ingredient is dissolved with the specified parts by weight of solvent and made up to the desired concentration with water containing an emulsifier concentration of 1000 ppm. To produce further test concentrations, the formulation is diluted with emulsifier-containing water.
(§4) Discs of Chinese cabbage leaves (Brassica pekinensis) infested by all stages of the green peach aphid (Myzus persicae) are sprayed with an active ingredient formulation of the desired concentration.
as §2

Myzus persicae [4] = assay: Myzus persicae - oral test (MYZUPE O), comparison with prior art; type: in vivo; settings: 5 dat; for Emax at 0.8 ppm / Emax at 4 ppm: Myzus persicae, po, 120 h, read-out: % efficacy
Procedure: Myzus persicae—Oral Test (MYZUPE O)
(§5) To produce a suitable active ingredient formulation, 1 part by weight of active ingredient is dissolved with the specified parts by weight of solvent and made up to the desired concentration with water.
(§6) 50 μl of the active ingredient formulation are transferred into microtitre plates and made up to a final volume of 200 μl with 150 μl of IPL41 insect medium (33%+15% sugar). Subsequently, the plates are sealed with parafilm, which a mixed population of green peach aphids (Myzus persicae) within a second microtitre plate is able to puncture and imbibe the solution.
as §2

[5] = log P by HPLC on reversed-phase (C18) columns, OECD Guideline 117; type: physicochemical; settings: for chromatographic logP: reversed-phase (C18) HPLC column
Myzus persicae [6] = assay: Myzus persicae - spray test; type: in vivo; settings: 500 g/ha, Chinese cabbage leaf discs, after 5 days; for pest or weed control at 500 g/ha: Myzus persicae, foliar, 120 h, read-out: efficacy (aphids killed)
Procedure: Myzus persicae—Spray Test
as §3, §4
(§7) After 5 days, the efficacy in % is determined. 100% means that all the aphids have been killed; 0% means that no aphids have been killed.

Myzus persicae [7] = assay: Myzus persicae - oral test; type: in vivo; settings: 4 ppm, oral, after 5 days; for pest or weed control at 4 ppm: Myzus persicae, 120 h, read-out: efficacy (aphids killed)
Procedure: as §5, §6, §7

[8] = 120 h, 4 g/ha (g of ai/ha), 5 dat
[9] = 120 h, 20 g/ha (g of ai/ha), 5 dat
[10] = 120 h, 100 g/ha (g of ai/ha), 5 dat
[11] = HPLC RP C18, acidic range pH 2.7, 0.1% formic acid/acetonitrile, read-out: logP[a]
[12] = HPLC RP C18, neutral range pH 7.8, ammonium hydrogencarbonate/acetonitrile, read-out: logP[n]

SMILES	Emax at 0.16 ppm (Myzus persicae [1]; 0.16 ppm) [%]	Emax at 0.16 ppm (Myzus persicae [2]; 0.16 ppm) [%]	Emax at 0.16 ppm (Aphis gossypii) [%]	Emax at 0.8 ppm (Aphis gossypii) [%]	Emax at 20 g/ha (Myzus persicae [3]; [9]) [%]	Emax at 0.8 ppm (Myzus persicae [4]; 0.8 ppm) [%]	Emax at 4 ppm (Myzus persicae [4]; 4 ppm) [%]	Emax at 0.8 ppm (Myzus persicae [1]; 0.8 ppm) [%]	Emax at 0.8 ppm (Myzus persicae [2]; 0.8 ppm) [%]	other results
CCc1ncc(C(=O)N(C)c2cccnc2)n1C [reference compound]	0	0	0	0						
Cc1nc(C(=O)Nc2cccnc2)c[nH]1 [WO 2011/009804 (Ex. 14), reference compound]					0	0	0			Emax at 4 g/ha (Myzus persicae [3]; [8]): 0%; Emax at 100 g/ha (Myzus persicae [3]; [10]): 0%
CCC1=NOC(c2ncc(C(=O)N(C)c3cccnc3)n2C)C1 (centres unmarked) [Example I-1-2]	100	98	98	98	90	100	100	100	100	chromatographic logP [5, 11]: 0.71; chromatographic logP [5, 12]: 1.09; pest or weed control at 500 g/ha (Myzus persicae [6]): 90%; pest or weed control at 4 ppm (Myzus persicae [7]): 100%; Emax at 100 g/ha (Myzus persicae [3]; [10]): 70%; Emax at 500 g/ha (Myzus persicae [3]; 120 h, 500 g/ha, 5 dat): 90%
CN(C(=O)c1cnc(C2CC(c3ccc(F)cc3)=NO2)n1C)c1cccnc1 (centres unmarked) [Example I-1-22]										logP[a] ([5]; pH 2.7): 1.55; logP[n] ([5]; pH 7.8): 1.82; efficacy (aphids killed) (Myzus persicae [6]): 100%; efficacy (aphids killed) (Myzus persicae [7]): 100%; % efficacy (Myzus persicae [3]; 4 g/ha (g of ai/ha), 5 dat): 90%; % efficacy (Myzus persicae [3]; 20 g/ha (g of ai/ha), 5 dat): 100%; % efficacy (Myzus persicae [3]; 100 g/ha (g of ai/ha), 5 dat): 100%; % efficacy (Myzus persicae [3]; 500 g/ha, 5 dat): 100%; % efficacy (Myzus persicae [4]; 0.8 ppm): 90%; % efficacy (Myzus persicae [4]; 4 ppm): 100%; % efficacy (Myzus persicae [1]; 0.16 ppm): 90%; % efficacy (Myzus persicae [1]; 0.8 ppm): 99%; % efficacy (Myzus persicae [2]; 0.16 ppm): 90%; % efficacy (Myzus persicae [2]; 0.8 ppm): 95%
CN(C(=O)c1cnc(C2CC(C(F)(F)F)=NO2)n1C)c1cccnc1 (centres unmarked) [Example I-1-32]	20	90	90	97		100	100	96	99	chromatographic logP [5, 11]: 1.45; chromatographic logP [5, 12]: 1.59; pest or weed control at 500 g/ha (Myzus persicae [6]): 90%; pest or weed control at 4 ppm (Myzus persicae [7]): 100%; Emax at 500 g/ha (Myzus persicae [3]; 120 h, 500 g/ha, 5 dat): 90%
CN(C(=O)c1cnc(C2CC(c3ccccn3)=NO2)n1C)c1cccnc1 (centres unmarked) [Example I-1-26]	100	95		100	90	100	100	100	98	chromatographic logP [5, 11]: 1.01; chromatographic logP [5, 12]: 1.27; pest or weed control at 500 g/ha (Myzus persicae [6]): 90%; pest or weed control at 4 ppm (Myzus persicae [7]): 100%; Emax at 100 g/ha (Myzus persicae [3]; [10]): 90%; Emax at 500 g/ha (Myzus persicae [3]; 120 h, 500 g/ha, 5 dat): 90%
O=C(Nc1cccnc1)c1c[nH]cn1 [WO 2011/009804 (Ex. 13), reference compound]						0	0			Emax at 4 g/ha (Myzus persicae [3]; 144 h, 4 g/ha, 6 dat): 0%; Emax at 20 g/ha (Myzus persicae [3]; 144 h, 20 g/ha, 6 dat): 0%; Emax at 100 g/ha (Myzus persicae [3]; 144 h, 100 g/ha, 6 dat): 0%
CN(C(=O)c1cnc(C2CC2)n1C)c1cccnc1 [reference compound]	5		10	30						
CN(C(=O)c1cnc(-c2cc(-c3ccccc3)no2)n1C)c1cccnc1 [reference compound]	0	0	0	0				0	0	Emax at 4 g/ha (Myzus persicae [3]; 144 h, 4 g/ha, 6 dat): 0%; Emax at 20 g/ha (Myzus persicae [3]; 144 h, 20 g/ha, 6 dat): 0%
Cc1ncc(C(=O)N(C)c2cccnc2)n1C [reference compound]	0	30	0	0						
CCOC(=O)c1cc(-c2ncc(C(=O)N(C)c3cccnc3)n2C)on1 [reference compound]					0	0	0			Emax at 4 g/ha (Myzus persicae [3]; [8]): 0%; Emax at 100 g/ha (Myzus persicae [3]; [10]): 0%; Emax at 500 g/ha (Myzus persicae [3]; 120 h, 500 g/ha, 5 dat): 0%
Cc1ncc(C(=O)Nc2cccnc2)n1C [reference compound]	0	0	0	0	0			30	0	Emax at 4 g/ha (Myzus persicae [3]; [8]): 0%
CN(C(=O)c1cnc(C2CC(c3ccccc3Cl)=NO2)n1C)c1cccnc1 (centres unmarked) [Example I-1-9]										logP[a] ([5]; HPLC RP C18, acidic range pH 2.7, 0.1% formic acid/acetonitrile): 1.69; logP[n] ([5]; HPLC RP C18, neutral range pH 7.8, ammonium hydrogencarbonate/acetonitrile): 1.95; efficacy (aphids killed) (Myzus persicae [6]): 100%; efficacy (aphids killed) (Myzus persicae [7]): 100%
CCOC(=O)C1=NOC(c2ncc(C(=O)N(C)c3cccnc3)n2C)C1 (centres unmarked) [Example I-1-5, Ethyl 5-{1-methyl-5-[methyl(pyridin-3-yl)carbamoyl]-1H-imidazol-2-yl}-4,5-dihydro-1,2-oxazole-3-carboxylate]										chromatographic logP [5, 11]: 1.04; chromatographic logP [5, 12]: 1.32; pest or weed control at 500 g/ha (Myzus persicae [6]): 100%; pest or weed control at 4 ppm (Myzus persicae [7]): 100%
